# ChEMBL document CHEMBL2331142, “Synthesis of new triazole acetamides with inotropic effects” (Bioorg Med Chem Lett, 2013)
# Activity calls are given as the source filed them. No cut-off for these calls is given here.
# Assays:
# [1] = (§1) Positive inotropic effect in rabbit left atrium assessed as increase in stroke volume at 3 x 10^-5 M measured for 2 mins relative to control; assay type: functional, Oryctolagus cuniculus, Cardiac atrium
# Oryctolagus cuniculus [2] = organism: Oryctolagus cuniculus; test: as §1; assay type: functional; conditions: Cardiac atrium
# Oryctolagus cuniculus [3] = organism: Oryctolagus cuniculus; test: Chronotropic effect in rabbit heart assessed as change in heart rate at 3 x 10^-5 M by electrocardiogram analysis relative to control; assay type: ADME, organism-based; conditions: in vivo, 30 µM
# Oryctolagus cuniculus [4] = organism: Oryctolagus cuniculus; test: Positive inotropic effect in rabbit left atrium assessed as increase in stroke volume at 1 x 10^-4 M measured for 2 mins; assay type: functional, tissue-based; conditions: Cardiac atrium
# [5] = Ratio of compound activity to milrinone activity for increase in stroke volume in rabbit left atrium at 3 x 10^-5 M; assay type: functional, Oryctolagus cuniculus, Cardiac atrium
Structure (SMILES),Activity [1] [%],other results
O=C(CN1CCN(Cc2ccccc2F)CC1)Nc1ccc2c(c1)CCc1nnc(-c3ccccc3Cl)n1-2,2.39,
O=C(CN1CCN(Cc2ccc(Cl)c(Cl)c2)CC1)Nc1ccc2c(c1)CCc1nnc(-c3cccc(Cl)c3)n1-2,,Activity (Oryctolagus cuniculus [2]): inactive
COc1ccc(CN2CCN(CC(=O)Nc3ccc4c(c3)CCc3nnc(-c5ccccc5Cl)n3-4)CC2)cc1,9.12,
O=C(CN1CCN(Cc2cccc(Cl)c2)CC1)Nc1ccc2c(c1)CCc1nnc(-c3ccccc3Cl)n1-2,2.18,
O=C(CN1CCN(Cc2cccc(Cl)c2)CC1)Nc1ccc2c(c1)CCc1nnc(-c3cccc(Cl)c3)n1-2,15.75,Activity (Oryctolagus cuniculus [3]): Toxic
O=C(CN1CCN(Cc2ccc(F)cc2)CC1)Nc1ccc2c(c1)CCc1nnc(-c3cccc(Cl)c3)n1-2,16.49,Activity (Oryctolagus cuniculus [3]): Non-toxic
O=C(CN1CCN(Cc2ccccc2)CC1)Nc1ccc2c(c1)CCc1nnc(-c3cccc(Cl)c3)n1-2,8.07,
CCCCCN1CCN(CC(=O)Nc2ccc3c(c2)CCc2nnc(-c4cccc(Cl)c4)n2-3)CC1,0.8,
Cc1[nH]c(=O)c(C#N)cc1-c1ccncc1 [MILRINONE],2.46,
O=C(CN1CCN(Cc2cccc(F)c2)CC1)Nc1ccc2c(c1)CCc1nnc(-c3cccc(Cl)c3)n1-2,6.33,
O=C(CN1CCN(Cc2ccc(F)cc2)CC1)Nc1ccc2c(c1)CCc1nnc(-c3ccccc3Cl)n1-2,4.58,
O=C(CN1CCN(Cc2ccc(Br)cc2)CC1)Nc1ccc2c(c1)CCc1nnc(-c3cccc(Cl)c3)n1-2,2.31,
CCCCCCCCN1CCN(CC(=O)Nc2ccc3c(c2)CCc2nnc(-c4cccc(Cl)c4)n2-3)CC1,,Activity (Oryctolagus cuniculus [2]): inactive
CCCCCCN1CCN(CC(=O)Nc2ccc3c(c2)CCc2nnc(-c4cccc(Cl)c4)n2-3)CC1,,Activity (Oryctolagus cuniculus [2]): inactive
O=C(CN1CCN(Cc2ccccc2Cl)CC1)Nc1ccc2c(c1)CCc1nnc(-c3cccc(Cl)c3)n1-2,0.8,
O=C(CN1CCN(Cc2ccccc2F)CC1)Nc1ccc2c(c1)CCc1nnc(-c3cccc(Cl)c3)n1-2,20.29,Activity (Oryctolagus cuniculus [4]): Active; Ratio [5]: 8.2; Activity (Oryctolagus cuniculus [3]): Non-toxic
O=C(CN1CCN(Cc2cccc(Br)c2)CC1)Nc1ccc2c(c1)CCc1nnc(-c3cccc(Cl)c3)n1-2,,Activity (Oryctolagus cuniculus [2]): inactive
Cc1ccc(CN2CCN(CC(=O)Nc3ccc4c(c3)CCc3nnc(-c5cccc(Cl)c5)n3-4)CC2)cc1,4.25,
O=C(CN1CCN(Cc2ccc(Cl)cc2Cl)CC1)Nc1ccc2c(c1)CCc1nnc(-c3cccc(Cl)c3)n1-2,,Activity (Oryctolagus cuniculus [2]): inactive
O=C(CN1CCN(Cc2ccc(Cl)cc2)CC1)Nc1ccc2c(c1)CCc1nnc(-c3cccc(Cl)c3)n1-2,7.22,
CCCCN1CCN(CC(=O)Nc2ccc3c(c2)CCc2nnc(-c4cccc(Cl)c4)n2-3)CC1,2.33,
O=C(CN1CCN(Cc2ccccc2)CC1)Nc1ccc2c(c1)CCc1nnc(-c3ccccc3Cl)n1-2,15.62,Activity (Oryctolagus cuniculus [3]): Non-toxic
O=C(CN1CCN(Cc2ccccc2Br)CC1)Nc1ccc2c(c1)CCc1nnc(-c3cccc(Cl)c3)n1-2,,Activity (Oryctolagus cuniculus [2]): inactive
COc1ccc(CN2CCN(CC(=O)Nc3ccc4c(c3)CCc3nnc(-c5cccc(Cl)c5)n3-4)CC2)cc1,16.84,Activity (Oryctolagus cuniculus [4]): Active; Activity (Oryctolagus cuniculus [3]): Non-toxic
